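How tested: cells in 96-well plates exposed to compound for 48 hours at five concentrations. GI50 is the concentration that inhibits growth by half.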 Calls of active or inactive are those of the source. Cut-off read from the data, not from the text of the source: active = GI50 up to about 1.1 µM and inactive = higher.
Columns and labels:
Assay in all cases: DTP human tumour cell line panel, 48 h
A498 = system: A498
COLO 205 = system: COLO 205
DU-145 = system: DU-145
K562 = system: K562
LOX IMVI = system: LOX IMVI
MDA-MB-435 = system: MDA-MB-435
NCI-H23 = system: NCI-H23
NCI-H522 = system: NCI-H522
NCI/ADR-RES = system: NCI/ADR-RES
OVCAR-8 = system: OVCAR-8
RPMI-8226 = system: RPMI-8226
RXF 393 = system: RXF 393
SF-268 = system: SF-268
SF-295 = system: SF-295
SR = system: SR
TK-10 = system: TK-10
U-251 = system: U-251
UACC-257 = system: UACC-257
UO-31 = system: UO-31
HOP-92 = system: HOP-92

Structure (SMILES) | GI50 (A498) | GI50 (COLO 205) | GI50 (DU-145) | GI50 (K562) | GI50 (LOX IMVI) | GI50 (MDA-MB-435) | GI50 (NCI-H23) | GI50 (NCI-H522) | GI50 (NCI/ADR-RES) | GI50 (OVCAR-8) | GI50 (RPMI-8226) | GI50 (RXF 393) | GI50 (SF-268) | GI50 (SF-295) | GI50 (SR) | GI50 (TK-10) | GI50 (U-251) | GI50 (UACC-257) | GI50 (UO-31) | GI50 (HOP-92)
CCOC(=O)CC1c2ccc(O)cc2OC(=O)C1c1ccc(N)cc1 (stereo not given) | > 100 µM (inactive) | > 100 µM (inactive) | > 100 µM (inactive) | > 100 µM (inactive) | > 100 µM (inactive) | > 100 µM (inactive) | > 100 µM (inactive) | 86.7 µM (inactive) | > 100 µM (inactive) | 95.9 µM (inactive) | > 100 µM (inactive) | > 100 µM (inactive) | 98.4 µM (inactive) | > 100 µM (inactive) | > 100 µM (inactive) | > 100 µM (inactive) | > 100 µM (inactive) | > 100 µM (inactive) | > 100 µM (inactive) | 
COc1cc(OC)cc(C(=O)CC(=O)c2cc(OC)cc(OC)c2)c1 | > 100 µM (inactive) | > 100 µM (inactive) | > 100 µM (inactive) | 46.1 µM (inactive) |  | 87.5 µM (inactive) | > 100 µM (inactive) |  | > 100 µM (inactive) | > 100 µM (inactive) | > 100 µM (inactive) | > 100 µM (inactive) | > 100 µM (inactive) | > 100 µM (inactive) | 47.8 µM (inactive) | > 100 µM (inactive) | > 100 µM (inactive) | > 100 µM (inactive) | > 100 µM (inactive) | > 100 µM (inactive)
COc1cc(C(=O)Nc2cc(C(N)=O)cc(OC)c2OC)cc(NC(=O)/C=C/c2ccccc2)c1OC |  | > 100 µM (inactive) | > 100 µM (inactive) | > 100 µM (inactive) |  | > 100 µM (inactive) | > 100 µM (inactive) | 3.43 µM (inactive) | > 100 µM (inactive) | > 100 µM (inactive) | 44 µM (inactive) | > 100 µM (inactive) |  | 2.67 µM (inactive) | 20.4 µM (inactive) | > 100 µM (inactive) |  | > 100 µM (inactive) | > 100 µM (inactive) | 5.11 µM (inactive)
Cc1ccccc1/N=N/c1c(O)c(S(=O)(=O)O)cc2cc(S(=O)(=O)O)ccc12 | > 100 µM (inactive) | > 100 µM (inactive) | > 100 µM (inactive) | > 100 µM (inactive) |  | > 100 µM (inactive) | > 100 µM (inactive) | > 100 µM (inactive) | > 100 µM (inactive) | > 100 µM (inactive) |  | > 100 µM (inactive) | > 100 µM (inactive) | > 100 µM (inactive) | > 100 µM (inactive) | > 100 µM (inactive) | > 100 µM (inactive) | > 100 µM (inactive) | > 100 µM (inactive) | > 100 µM (inactive)
CCc1nc(N)nc(N)c1-c1ccc(Cl)c([N+]#N)c1 |  | 56 µM (inactive) | 80.2 µM (inactive) | 6.32 µM (inactive) | 46.5 µM (inactive) | 38.7 µM (inactive) | 28.5 µM (inactive) | 38.7 µM (inactive) | 49.8 µM (inactive) | 66.8 µM (inactive) | 0.564 µM (active) | > 100 µM (inactive) | > 100 µM (inactive) | 39 µM (inactive) | 22.9 µM (inactive) | > 100 µM (inactive) | 64.3 µM (inactive) | > 100 µM (inactive) | 78.3 µM (inactive) | > 100 µM (inactive)

From ChEMBL document CHEMBL1201862, “PubChem BioAssay data set” (2004)
